Measured values taken from patent publication US20250051347A1, “BIFUNCTIONAL CHIMERIC HETEROCYCLIC COMPOUND AND USE THEREOF AS ANDROGEN RECEPTOR DEGRADER” (Hinova Pharmaceuticals, Inc., priority 2021, published 2025).
Like-named read-outs stand apart in the source and are kept apart here.

Key:
[1] = target: T1, androgen receptor (AR) splicing variant AR-v7 (Homo sapiens, UniProt P10275); experiment: Degradation activity on androgen receptor splicing variant AR-v7 in 22RV1 cells (ELISA); format: cell-based; settings: AR-v7 degradation in 22RV1 cells, 48 h, class symbols
T1 construct: The degradation activity of compounds on AR-v7 in 22RV1 cells; host or cells: 22RV1 cells
T1 sequence (P10275 1-644 isoform P10275-3): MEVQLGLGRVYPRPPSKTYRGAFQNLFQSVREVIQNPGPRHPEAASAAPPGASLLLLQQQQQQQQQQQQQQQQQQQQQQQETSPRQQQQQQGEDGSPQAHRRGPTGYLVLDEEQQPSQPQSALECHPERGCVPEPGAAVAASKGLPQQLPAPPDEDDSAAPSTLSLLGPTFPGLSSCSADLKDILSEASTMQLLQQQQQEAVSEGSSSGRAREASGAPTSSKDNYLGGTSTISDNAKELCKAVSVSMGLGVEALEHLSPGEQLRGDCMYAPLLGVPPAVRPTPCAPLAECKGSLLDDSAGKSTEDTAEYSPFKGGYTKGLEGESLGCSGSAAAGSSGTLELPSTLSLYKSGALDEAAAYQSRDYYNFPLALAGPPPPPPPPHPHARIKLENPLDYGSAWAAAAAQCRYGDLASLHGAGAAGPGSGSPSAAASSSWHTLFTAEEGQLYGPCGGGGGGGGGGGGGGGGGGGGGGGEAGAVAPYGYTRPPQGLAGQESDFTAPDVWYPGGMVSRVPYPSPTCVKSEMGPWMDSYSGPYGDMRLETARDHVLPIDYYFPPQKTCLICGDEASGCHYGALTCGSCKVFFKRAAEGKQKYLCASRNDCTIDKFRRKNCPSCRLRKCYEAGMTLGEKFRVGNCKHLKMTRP

[2] = Homo sapiens, 22Rv1, 144 h, read-out: 22RV1 IC50 (nM), 22RV1 cells, 6 days culture, CCK-8, OD 450 nm
[3] = read-out: 22RV1 IC50, 22RV1 cells, 6 days culture, CCK-8, OD 450 nm

| DC50 [1] [nM] | IC50 (22RV1 cells; [2]) [nM] | SMILES | IC50 (22RV1 cells; [3]) [nM] |
| --- | --- | --- | --- |
| 11 to 100 | 31 | CC(C)(c1ccc(OCCCNc2ccc3c(c2)C(=O)N(C2CCC(=O)NC2=O)C3=O)cc1)c1ccc(OCc2ccnc(-n3nccn3)n2)cc1 (centres unmarked) [Example 229, 5-((3-(4-(2-(4-((2-(2H-1,2,3-triazol-2-yl)pyrimidin-4-yl)methoxy)phenyl)propan-2-yl)phenoxy)propyl)amino)-2-(2,6-dioxopiperidin-3-yl)isoindolin-1,3-dione] | – |
| < 10 | 9 | CC(C)(c1ccc(OCc2ccnc(-n3ccnn3)n2)cc1)c1ccc(O[C@H]2C[C@H](Nc3ccc4c(c3)C(=O)N(C3CCC(=O)NC3=O)C4=O)C2)cc1 (some centres unmarked) [Example 230] | – |
| < 10 | 16 | CC(C)(c1ccc(OCc2ccnc(N3CC[C@H](O)C3)n2)cc1)c1ccc(O[C@H]2C[C@@H](Nc3ccc4c(c3)C(=O)N(C3CCC(=O)NC3=O)C4=O)C2)cc1 (some centres unmarked) [Example 233] | – |
| < 10 | 9 | CC(C)(c1ccc(OCc2ccnc(NC3COC3)n2)cc1)c1ccc(O[C@H]2C[C@@H](Nc3ccc4c(c3)C(=O)N(C3CCC(=O)NC3=O)C4=O)C2)cc1 (some centres unmarked) [Example 237] | – |
| < 10 | 6 | CC(C)(c1ccc(Oc2ccnc(N3CC4(COC4)C3)n2)cc1)c1ccc(O[C@H]2C[C@H](Nc3ccc4c(c3)C(=O)N(C3CCC(=O)NC3=O)C4=O)C2)cc1 (some centres unmarked) [Example 244, 5-((1r,3r)-3-(4-(2-(4-(4-((2-(2-oxa-6-azaspiro[3.3]heptane-6-yl)pyrimidin-4-yl)oxy)phenyl)propan-2-yl)phenoxy)cyclobutyl)amino)-2-(2,6-dioxopiperidin-3-yl)isoindolin-1,3-dione] | – |
| < 10 | 5 | CC(=O)c1nccc(Oc2ccc(C(C)(C)c3ccc(O[C@H]4C[C@H](Nc5ccc6c(c5)C(=O)N(C5CCC(=O)NC5=O)C6=O)C4)cc3)cc2)n1 (some centres unmarked) [Example 246] | – |
| < 10 | 6 | CC(c1nccc(COc2ccc(C(C)(C)c3ccc(O[C@H]4C[C@H](Nc5ccc6c(c5)C(=O)N(C5CCC(=O)NC5=O)C6=O)C4)cc3)cc2)n1)N1CCC1 (some centres unmarked) [Example 249] | – |
| < 10 | 2 | CC(C)(c1ccc(Oc2cccc(-n3nccn3)n2)cc1)c1ccc(O[C@H]2C[C@H](Nc3ccc4c(c3)C(=O)N(C3CCC(=O)NC3=O)C4=O)C2)cc1 (some centres unmarked) [Example 256, 5-((1r,3r)-3-(4-(2-(4-((6-(2H-1,2,3-triazol-2-yl)pyridin-2-yl)oxy)phenyl)propan-2-ylphenoxy)cyclobutyl)amino)-2-(2,6-dioxopiperidin-3-yl)isoindolin-1,3-dione] | – |
| 101 to 1000 | 8 | CC(C)(c1ccc(Oc2ccc(N3CC(N4CC(F)C4)C3)nn2)cc1)c1ccc(O[C@H]2C[C@H](Nc3ccc4c(c3)C(=O)N(C3CCC(=O)NC3=O)C4=O)C2)cc1 (some centres unmarked) [Example 258] | – |
| < 10 | 4 | CC(C)(c1ccc(Oc2cnc(C(N)=O)nc2)cc1)c1ccc(O[C@H]2C[C@H](Nc3ccc4c(c3)C(=O)N(C3CCC(=O)NC3=O)C4=O)C2)cc1 (some centres unmarked) [Example 265, 5-(4-(2-(4-((1r,3r)-3-((2-(2,6-dioxopiperidin-3-yl)-1,3-dioxoisoindolin-5-yl)amino)cyclobutyloxy)phenyl)propan-2-yl)phenoxy)pyrimidin-2-carbonylamine] | – |
| < 10 | 10 | Cn1cc(-c2nccc(COc3ccc(C(C)(C)c4ccc(O[C@H]5C[C@@H](Nc6ccc7c(c6)C(=O)N(C6CCC(=O)NC6=O)C7=O)C5)cc4)cc3)n2)cn1 (some centres unmarked) [Example 270] | – |
| < 10 | 10 | CC(C)(c1ccc(OCc2ccnc(-c3cn[nH]c3)n2)cc1)c1ccc(O[C@H]2C[C@@H](Nc3ccc4c(c3)C(=O)N(C3CCC(=O)NC3=O)C4=O)C2)cc1 (some centres unmarked) [Example 273] | – |
| < 10 | 6 | CC(C)(c1ccc(OCc2ccnc(-c3ncon3)n2)cc1)c1ccc(O[C@H]2C[C@@H](Nc3ccc4c(c3)C(=O)N(C3CCC(=O)NC3=O)C4=O)C2)cc1 (some centres unmarked) [Example 276] | – |

The remaining lines, values behind:

| SMILES | DC50 [1] [nM] | IC50 (22RV1 cells; [2]) [nM] | IC50 (22RV1 cells; [3]) [nM] |
| --- | --- | --- | --- |
| CC(C)(c1ccc(OCCCNc2ccc3c(c2)C(=O)N(C2CCC(=O)NC2=O)C3=O)cc1)c1ccc(OCc2nc(CO)co2)cc1 (centres unmarked) [Example 185, 2-(2,6-dioxopiperidin-3-yl)-5-((3-(4-(2-(4-((4-(hydroxylmethyl)oxazol-2-yl)methoxy)phenyl)propan-2-yl)phenoxy)propyl)amino)isoindolin-1,3-dione] | 11 to 100 | 56 | – |
| CNC(=O)c1nccc(COc2ccc(C(C)(C)c3ccc(O[C@H]4C[C@H](Nc5ccc6c(c5)C(=O)N(C5CCC(=O)NC5=O)C6=O)C4)cc3)cc2)n1 (some centres unmarked) [Example 186, 4-((4-(2-(4-((1r,3r)-3-((2-(2,6-dioxopiperidin-3-yl)-1,3-dioxoisoindolin-5-yl)amino)cyclobutyloxy)phenyl)propan-2-yl)phenoxy)methyl)-N-methylpyrimidin-2-carbonylamine] | 11 to 100 | 32 | – |
| CC(C)(c1ccc(O[C@H]2C[C@@H](Nc3ccc4c(c3)C(=O)N(C3CCC(=O)NC3=O)C4=O)C2)cc1)c1ccc(N2CCc3ncnc(N4CC5(COC5)C4)c3C2)cc1 (some centres unmarked) [Example 194] | 11 to 100 | 33 | – |
| Cc1nccc(Oc2ccc(C(C)(C)c3ccc(O[C@H]4C[C@H](Nc5ccc6c(c5)C(=O)N(C5CCC(=O)NC5=O)C6=O)C4)cc3)cc2)n1 (some centres unmarked) [Example 197] | < 10 | 5 | – |
| CC(C)(c1ccc(OCc2nc(N3CC4(COC4)C3)ncc2F)cc1)c1ccc(O[C@H]2C[C@H](Nc3ccc4c(c3)C(=O)N(C3CCC(=O)NC3=O)C4=O)C2)cc1 (some centres unmarked) [Example 200] | < 10 | 12 | – |
| Cc1cnc(N2CC3(COC3)C2)nc1COc1ccc(C(C)(C)c2ccc(O[C@H]3C[C@H](Nc4ccc5c(c4)C(=O)N(C4CCC(=O)NC4=O)C5=O)C3)cc2)cc1 (some centres unmarked) [Example 204] | < 10 | 6 | – |
| CC(C)(c1ccc(Oc2ccc(-n3ccnn3)nc2)cc1)c1ccc(O[C@H]2C[C@H](Nc3ccc4c(c3)C(=O)N(C3CCC(=O)NC3=O)C4=O)C2)cc1 (some centres unmarked) [Example 207, 5-((1r,3r)-3-(4-(2-(4-((6-(1H-1,2,3-triazol-1-yl)pyridin-3-yl)oxy)phenyl)propan-2-ylphenoxy)cyclobutyl)amino)-2-(2,6-dioxopiperidin-3-yl) isoindolin-1,3-dione] | < 10 | 16 | – |
| CC(C)(c1ccc(Oc2cnnc(-n3nccn3)c2)cc1)c1ccc(O[C@H]2C[C@H](Nc3ccc4c(c3)C(=O)N(C3CCC(=O)NC3=O)C4=O)C2)cc1 (some centres unmarked) [Example 217] | < 10 | 15 | – |
| Cc1nnc(-c2cnnc(Oc3ccc(C(C)(C)c4ccc(O[C@H]5C[C@H](Nc6ccc7c(c6)C(=O)N(C6CCC(=O)NC6=O)C7=O)C5)cc4)cc3)c2)o1 (some centres unmarked) [Example 218] | < 10 | 6 | – |
| CC(O)c1ncc(Oc2ccc(C(C)c3ccc(O[C@H]4C[C@H](Nc5ccc6c(c5)C(=O)N(C5CCC(=O)NC5=O)C6=O)C4)cn3)cc2)cn1 (some centres unmarked) [Example 219] | < 10 | 6 | – |
| CC(=O)c1ncc(Oc2ccc(C(C)c3ccc(O[C@H]4C[C@H](Nc5ccc6c(c5)C(=O)N(C5CCC(=O)NC5=O)C6=O)C4)cn3)cc2)cn1 (some centres unmarked) [Example 220] | < 10 | 8 | – |
| Cc1nc(-c2ncc(Oc3ccc(C(C)(C)c4ccc(OC5CC(Nc6ccc7c(c6)C(=O)N(C6CCC(=O)NC6=O)C7=O)C5)cn4)cc3)cn2)no1 (centres unmarked) [Example 221, 2-(2,6-dioxopiperidin-3-yl)-5-((1r,3r)-3-((6-(2-(4-((2-(5-methyl-1,2,4-oxadiazol-3-yl)pyrimidin-5-yl)oxy)phenyl)propan-2-yl)pyridin-3-yl)oxy)cyclobutyl)amino)isoindolin-1,3-dione] | < 10 | – | 6 |
| CC(=O)c1ncc(Oc2ccc(C(C)(C)c3ccc(OC4CC(Nc5ccc6c(c5)C(=O)N(C5CCC(=O)NC5=O)C6=O)C4)cn3)cc2)cn1 (centres unmarked) [Example 222, 5-((1r,3r)-3-((6-(2-(4-((2-acetylpyrimidin-5-yl)oxy)phenyl)propan-2-yl)pyridin-3-yl)oxy)cyclobutyl)amino)-2-(2,6-dioxopyridin-3-yl)isoindolin-1,3-dione] | < 10 | – | 3 |
| Cc1nc(COc2ccc(C(C)(C)c3ccc(OCCCNc4ccc5c(c4)C(=O)N(C4CCC(=O)NC4=O)C5=O)cc3)cc2)cs1 (centres unmarked) [Example 225, 2-(2,6-dioxopiperidin-3-yl)-5-((3-(4-(2-(4-((2-methylthiazol-4-yl)methoxy)phenyl)propan-2-yl)phenoxy)propyl)amino)isoindolin-1,3-dione] | 11 to 100 | 60 | – |
| CC(C)(c1ccc(OCCCNc2ccc3c(c2)C(=O)N(C2CCC(=O)NC2=O)C3=O)cc1)c1ccc(OCc2ccnc(-n3ccnn3)n2)cc1 (centres unmarked) [Example 228, 5-((3-(4-(2-(4-((2-(1H-1,2,3-triazol-1-yl)pyrimidin-4-yl)methoxy)phenyl)propan-2-yl)phenoxy)propyl)amino)-2-(2,6-dioxopiperidin-3-yl)isoindolin-1,3-dione] | 11 to 100 | 22 | – |
